The source of these data is US6716837B1, “Heterocyclic compounds for the treatment of migraine” (NPS Allelix Biopharmaceuticals, Inc., priority 1999, dated 2004).

In the first assay the target is T1, 5-HT1D receptor (Homo sapiens, UniProt P28221).
T1 construct: expressed in transfected cells
T1 sequence (P28221 whole entry): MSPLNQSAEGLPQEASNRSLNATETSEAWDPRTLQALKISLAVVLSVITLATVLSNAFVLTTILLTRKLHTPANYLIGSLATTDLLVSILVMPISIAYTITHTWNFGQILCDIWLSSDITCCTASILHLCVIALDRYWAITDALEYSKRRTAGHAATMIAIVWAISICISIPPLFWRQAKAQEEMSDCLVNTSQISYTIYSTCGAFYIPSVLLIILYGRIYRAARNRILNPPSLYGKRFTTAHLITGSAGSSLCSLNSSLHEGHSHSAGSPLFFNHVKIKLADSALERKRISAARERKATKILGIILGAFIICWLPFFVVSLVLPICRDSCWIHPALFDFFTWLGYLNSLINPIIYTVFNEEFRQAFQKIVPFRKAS
The assay is described as follows: Functional assay: inhibition of forskolin-stimulated adenyl cyclase (cAMP) in CHO cells. The assay is classed as cell-based. As to conditions: CHO cells stably expressing the 5-HT1D receptor; test compound at 100 nM and 10 μM. The procedure: The 5HT1D and 5HT1B receptor subtypes respond to serotonin and other agonists by reducing adenyl cyclase mediated production of cyclic AMP. Particular test compounds were assayed for their ability to inhibit adenyl cyclase activity using the procedure described below. Forskolin was used to elevate the basal adenyl cyclase activity.
Compounds acting as antagonists at the 5HT1D and 5HT1B receptor subtypes will antagonize the agonist effect of serotonin and thus, will block the serotonin-induced inhibition of forskolin-stimulated adenyl cyclase activity. […]
The culture media of each well was removed, and the wells were washed once with serum free media. […] Basal adenyl cyclase activity was determined from wells with only SFM+IBMX media added.
The cells were then incubated at 37° C. for 30 minutes in a CO2 incubator. […] The pellets were discarded and the supernatants were stored at 4° C. until assayed for cAMP concentration. cAMP content for each extract was determined in duplicate by EIA (enzyme-immunoassay) using the Amersham Biotrak cAMP EIA kit (Amersham RPN 225).
Total inhibition (Io) of forskolin-stimulated adenyl cyclase activity by serotonin was determined as the difference in concentration of cAMP in the forskolin-treated cells (Cf) and serotonin-forskolin treated cells (Cd). […]
As to `CC(C)n1ccc2ccc(CCN(C)C)cc21` [Example 2, 6-(2-(N,N-Dimethylamino)ethyl)-1-isopropyl-indole], the “effect on forskolin stimulated production of cAMP (agonist activity)” value is on record as “caused a decrease in the forskolin stimulated production of cAMP”.

Another assay has as its target T1, 5-HT1D receptor. The assay is described as follows: 5-HT1D receptor binding, inhibition of 3H-serotonin binding. As to conditions: 100 nM test compound; 3H-serotonin 1 nM; membranes from recombinant cells; 60 minute incubation at 22° C.; read-out: percent inhibition of binding of the radio ligand at the 5-HT1D receptor. How it is done:
Selected compounds of the previous examples, as well as reference compounds, were evaluated for binding affinity using cell types receptive specifically to 5-HT1D and 5-HT1B ligands. The assay protocol generally entailed the incubation of membranes prepared from cells expressing the 5-HT1D or 5-HT1B subtype of 5-HT receptors with ^3H-serotonin (1 nM for 5-HT1D and 2.5 nM for 5-HT1B). Specific concentrations of the test compound were incubated with the radio ligand and the membrane homogenates prepared from the recombinant cells. After a 60 minute incubation at 22° C., the incubation was terminated by vacuum filtration. The filters were washed with buffer and counted for radioactivity using liquid scintillation spectroscopy. The affinity of the test compound for the 5-HT1D receptor is expressed as the amount (in percent) of binding of the radio ligand that is inhibited in the presence of 100 nM of test compound. A greater percent inhibition indicates greater affinity for the 5-HT1D receptor.
Consider `CC(C)n1ccc2ccc(CCN(C)C)cc21` [Example 2, 6-(2-(N,N-Dimethylamino)ethyl)-1-isopropyl-indole], for which the inhibition at 0.1 µM is over 90%.
On to `Brc1ccc2ccn(C3CCNCC3)c2c1` [Example 10c, 6-Bromo-1-(4-piperidinyl)-indole], for which the inhibition at 0.1 µM is over 50%.
On to `CN(C)CCc1ccc2ccn(C3CCOCC3)c2c1` [Example 11b, 6-(2-Dimethylaminoethyl)-1-(tetrahydropyran4-yl)-indole], for which the inhibition at 0.1 µM was over 90%.
On the same count and under the same terms, for `CC(C)n1ncc2ccc(CCN(C)C)cc21` [Example 14, 6-(2-(N,N-Dimethylamino)ethyl)-1-isopropyl-1H-indazole] the value was over 90%; for `CC(C)n1ccc2ccc(C3=CCN(C)CC3)cc21` [Example 16c, 6-[N-Methyl-1,2,5,6-tetrahydropyridin-4-yl]-1-isopropyl-indole], over 50%.
`CN1CC=C(c2ccc3ccn(-c4ccc(F)cc4)c3c2)CC1` [Example 19, 1-(4-Fluorophenyl)-6-(N-methyl-1,2,5,6-tetrahydropyridin-4-yl)-indole]: the inhibition at 0.1 µM was over 75%.
Take `CN1CC=C(c2ccc3ccn(-c4ccsc4)c3c2)CC1` [Example 19c, 6-(N-Methyl-1,2,5,6-tetrahydropyridin-4-yl)-1-(3-thienyl)-indole]: the inhibition at 0.1 µM is over 75%.
For `CN1CC=C(c2ccc3ccn(-c4cccnc4)c3c2)CC1` [Example 19d, 6-(N-Methyl-1,2,5,6-tetrahydropyridin-4-yl)-1-(3-pyridyl)-indole], the inhibition at 0.1 µM is over 75%.
On to `CN(C)CCc1ccc2ccn(-c3cccnc3)c2c1` [Example 19f, 6-(2-Dimethylaminoethyl)-1-(3-pyridinyl)-indole], for which the inhibition at 0.1 µM is over 90%.
With `CN1CC=C(c2ccc3ccn(-c4nccs4)c3c2)CC1` [Example 19i, 6-(N-Methyl-1,2,5,6-tetrahydropyridin-4-yl)-1-(2-thiazolyl)-indole], the inhibition at 0.1 µM was over 50%.
